Test results taken from patent EP1595878A1, “INDOLE DERIVATIVES WITH APOPTOSIS INDUCING ACTIVITY” (Zentaris GmbH, priority 2004, dated 2005).
In brackets after ≈: the same amount, converted by molar mass. Where two headings read alike, the source gives them in different places.

How the values were obtained:
[1] = test system: Doxorubicin-resistente P388; assay: XTT proliferation assay, doxorubicin-resistant P388; type: cell-based, murine; details: Mus musculus
Description: (§1) Die Substanzen 1, 2, 4, 9, 11, 12 , 13 und 15 wurden in einem Proliferationstest an etablierten Tumorzelllinien auf ihre anti-proliferative Aktivität hin untersucht (D.A. Scuderio et al. Cancer Res. 1988, 48, 4827-4833). Der verwendete Test bestimmt die zelluläre Dehydrogenase-Aktivität und ermöglicht eine Bestimmung der Zellvitalität und indirekt der Zellzahl. Bei den verwendeten Zelllinien handelt es sich um die humane Cervixkarzinom Zelllinie KB/HeLa (ATCC CCL17), die ovariale Adenokarzinomzelllinie SKOV-3 (ATCC HTB77), die humane Glioblastom Zelllinie SF-268 (NCI 503138) und die Lungenkarzinom Zelllinie NCI-H460 (NCI 503473). Tabelle 1:
(§2) Zur weiteren Charakterisierung wurden die Substanzen 1, 2, 4 und 11 gegenüber multi drug resistenten Zelllinien im Vergleich zu den nicht-resistenten Wildtypzelllinien untersucht.
(§3) Bei den untersuchten Zelllinien handelt es sich um die murine L1210, die akute myeloische Leukaemie Zelllinie LT12 und um die resistenten Linien L1210/mdr und LT12/mdr. Außerdem wurden die murine P388 Zelllinie (methyl-cholanthreneinduced lymphoid neoplasm) sowie die Doxorubicin-resistente P388 als Testsysteme herangezogen.

LT12/mdr = assay: XTT proliferation assay, resistant LT12/mdr; type: cell-based; details: Rattus norvegicus
Description: as §1, §2, §3

human Topoisomerase II = human Topoisomerase II (Homo sapiens, UniProt P11388); assay: pRYG relaxation assay for topoisomerase II activity; type: biochemical; details: compound 1 at 100, 31.6 and 10 µM; reference compounds at 316 and 100 µM
Sequence of human Topoisomerase II (P11388 whole entry): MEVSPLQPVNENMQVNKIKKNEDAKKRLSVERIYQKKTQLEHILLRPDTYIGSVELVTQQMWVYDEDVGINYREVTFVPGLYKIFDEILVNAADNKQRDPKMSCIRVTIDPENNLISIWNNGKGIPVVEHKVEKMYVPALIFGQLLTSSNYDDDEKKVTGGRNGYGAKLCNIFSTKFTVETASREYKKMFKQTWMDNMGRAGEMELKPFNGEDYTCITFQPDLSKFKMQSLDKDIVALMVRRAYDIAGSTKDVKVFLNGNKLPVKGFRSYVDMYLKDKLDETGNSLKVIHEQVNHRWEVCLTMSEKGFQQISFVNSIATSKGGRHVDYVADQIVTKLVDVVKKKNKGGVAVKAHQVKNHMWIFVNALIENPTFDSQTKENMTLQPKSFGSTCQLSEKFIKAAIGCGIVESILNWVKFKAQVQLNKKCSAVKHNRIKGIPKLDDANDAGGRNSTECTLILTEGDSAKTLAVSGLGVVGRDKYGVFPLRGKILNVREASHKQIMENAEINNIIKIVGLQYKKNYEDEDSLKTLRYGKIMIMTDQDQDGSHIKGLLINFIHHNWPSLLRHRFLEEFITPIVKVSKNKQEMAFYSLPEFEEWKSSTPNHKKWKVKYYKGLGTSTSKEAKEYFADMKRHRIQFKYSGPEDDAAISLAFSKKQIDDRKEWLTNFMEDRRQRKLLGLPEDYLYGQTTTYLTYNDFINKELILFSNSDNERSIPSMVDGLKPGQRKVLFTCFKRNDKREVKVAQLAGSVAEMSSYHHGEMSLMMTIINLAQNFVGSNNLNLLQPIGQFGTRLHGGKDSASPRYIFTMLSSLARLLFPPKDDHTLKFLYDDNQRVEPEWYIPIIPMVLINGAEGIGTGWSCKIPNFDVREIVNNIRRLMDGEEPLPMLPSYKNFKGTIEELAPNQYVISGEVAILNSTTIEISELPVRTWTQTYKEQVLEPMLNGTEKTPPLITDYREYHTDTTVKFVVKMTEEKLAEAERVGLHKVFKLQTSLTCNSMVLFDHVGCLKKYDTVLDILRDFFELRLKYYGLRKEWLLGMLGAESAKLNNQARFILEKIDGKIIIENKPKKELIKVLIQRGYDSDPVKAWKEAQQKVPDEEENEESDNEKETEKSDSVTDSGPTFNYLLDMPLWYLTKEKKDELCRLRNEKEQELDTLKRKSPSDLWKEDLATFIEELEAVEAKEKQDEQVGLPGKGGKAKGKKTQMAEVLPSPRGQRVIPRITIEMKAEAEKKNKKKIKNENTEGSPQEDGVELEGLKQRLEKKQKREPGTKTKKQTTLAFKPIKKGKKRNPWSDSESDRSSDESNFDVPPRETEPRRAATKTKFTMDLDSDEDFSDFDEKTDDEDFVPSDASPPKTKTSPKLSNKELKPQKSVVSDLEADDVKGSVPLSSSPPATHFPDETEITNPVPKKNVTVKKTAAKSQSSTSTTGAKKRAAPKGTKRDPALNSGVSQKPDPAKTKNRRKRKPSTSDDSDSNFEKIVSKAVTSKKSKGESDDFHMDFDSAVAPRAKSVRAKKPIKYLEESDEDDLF
Protocol: Mit diesem Relaxationsassay konnte zusätzlich die inhibitorische Eigenschaft der erfindungsgemäßen Verbindungen auf Topoisomerase II gezeigt werden. Die Testung der erfindungsgemäßen Verbindung 1 erfolgte hierbei bei drei unterschiedlichen Konzentrationen (100, 31.6 und 10 µM). Zum Vergleich setzte man die Referenzverbindungen m-Amsacrin, Paclitaxel (Taxol) und Vincristine bei Konzentrationen von 316 und 100µM ein.
Zu 1µL vorgelegter Testsubstanz (20fach konzentriert in 100% DMSO) werden 2µL 10x Assay Puffer, 0,5µL pRYG DNA (125ng), 0,5µL human Topoisomerase II (1 unit) und 16µL H2O pipettiert und gemischt. Die Reaktionsansätze werden in den auf 37°C vorgeheizten Heizblock gestellt und 30min bei 37°C inkubiert. Die Inkubation wird nach Zugabe von 4µL 5x Stop Puffer abgestoppt. Danach werden 10µL des Ansatzes auf ein 1,2% Agarosegel mit 0,25µg/mL Ethidiumbromid aufgetragen und 2,5h bei 100V aufgetrennt. Zum Schluß wird das Gel unter UV Anregung fotografiert (s. Figur 3). Die Quantifizierung der Inhibierung der pRYG Relaxation erfolgt mit der GelPro®Analyzer Software (s. Figur 4).

Rindertubulin = assay: Inhibition of tubulin polymerisation in vitro; type: biochemical, Rind
Description: Die Substanzen 1, 4, 9, 11, 12, 13 und 15 wurden in einem in-vitro Test auf Hemmung der Polymerisation von Rindertubulin getestet (D.M. Bollag et al. Cancer Res. 1995, 55, 2325-2333). In diesem Test wird durch Zyklen von Polymerisation und Depolymerisation aufgereinigtes Tubulin eingesetzt, welches durch Zugabe von GTP und Erwärmung zur Polymerisation gebracht wird. In Tabelle 3 sind die EC50 Werte der Polymerisationshemmung von Tubulin mit 30% assoziierten Proteinen (MAPs) angegeben.

U-937 Zelllinie = assay: CDD plus nucleosome ELISA test (apoptosis detection); type: cell-based; details: U-937, 1nM-10µM, 24 h treatment; for Nucleosomen im Zelllysat: cell lysate; for Nucleosomen im Zellkulturüberstand: culture supernatant
Description: Die Kernfragmentierung ist eine Spätfolge apoptotischer Prozesse. Die dabei zu beobachtenden Veränderungen lassen sich auf durch Endonukleasen gespaltene DNA-Stränge und daraus resultierende Fragmentierung in Nucleosomen Partikel zurückführen.
Zum Nachweis der Nucleosomen Partikel wurde der von der Firma Roche Molecular Biochemicals beschriebene CDD^plus Nucleosomen ELISA Test eingesetzt. Hierzu untersuchte man die Verbindungen 1 und 2 an der U-937 Zelllinie bei unterschiedlichen Konzentrationen (1nM-10µM, 24 h Behandlung). (s. Figur 5 und Figur 6)

L1210VCR = assay: XTT proliferation assay, resistant L1210; type: cell-based, murine; details: Mus musculus
Description: as §1, §2, §3

[2] = molecular target: humaner DNA-Topoisomerase II (Homo sapiens, UniProt P11388); assay: kDNA decatenation assay for topoisomerase II activity; type: biochemical; details: compound 1 at 100, 31.6 and 10 µM; reference compounds at 100 µM
Sequence of humaner DNA-Topoisomerase II (P11388 whole entry): as above
Protocol: In diesem von P. Arimondo (Anti-Cancer Drug Design 2000, 15 (6), 413-421) beschriebenen Assay wird kDNA mit humaner DNA-Topoisomerase II in Abwesenheit oder Gegenwart der Testverbindungen behandelt. Die Testung der erfindungsgemäßen Verbindung 1 erfolgte hierbei bei drei unterschiedlichen Konzentrationen (100, 31.6 und 10 µM). Zum Vergleich setzte man eine Positivkontrolle und die Referenzverbindungen m-Amsacrin (m-Amsa), Paclitaxel (Taxol) und Vincristine bei einer jeweiligen Konzentration von 100µM ein.
Zu 1µL vorgelegter Testsubstanz (20fach konzentriert in 100% DMSO) werden 2µL 10x Assay Puffer, 1µL kDNA (200ng), 0,5µL human Topoisomerase II (1unit) und 15,5µL H2O pipettiert und gemischt.
Die Reaktionsansätze werden in den auf 37°C vorgeheizten Heizblock gestellt und 10min bei 37°C inkubiert. Die Inkubation wird nach Zugabe von 4µL 5x Stop Puffer gestoppt und nachfolgend die Substanz mit CIA extrahiert. Danach werden 20µL des Überstandes auf ein 1 % Agarosegel mit 0,25µg/mL Ethidiumbromid aufgetragen und 1 h bei 100V aufgetrennt. Zum Schluss wird das Gel unter UV-Anregung fotografiert (s. Figur 1). Die Quantifizierung der Inhibierung der Decatenation von kDNA erfolgt mit der GelPro®Analyzer Software (s. Figur 2)

KB/HeLa Zellen = assay: Cell cycle analysis (G2/M arrest); type: cell-based; details: Homo sapiens, read-out: EC50 in nM (50% cells in G2/M)
Description: Der Zellzyklus umfasst die Entwicklung der Zelle von einer Zellgeneration zur nächsten.
Während der Ruhephase (G0) und präsynthetischen Phase (G1) besitzt die Zelle einen diploiden Chromosomensatz (2c). In der Synthesephase (S) wird die DNA-Menge durch Replikation vermehrt. Die S-Phase endet mit Erreichen der prämitotischen Phase (G2M), in der die Zelle einen reduplizierten Chromosomenbestand (4c) und verdoppelten DNA-Gehalt aufweist. In der nachfolgenden, kurzdauernden Mitosephase (M) kommt es zur gleichmäßigen Aufteilung der reduplizierten Chromosomen auf zwei Tochterzellen, die dann jeweils wieder einen diploiden DNA Gehalt zeigen und sich in der G01-Phase befinden, so daß der Zellzyklus neu beginnen kann.
Für die Zellzyklusanalyse wurden KB/HeLa Zellen mit den Testsubstanzen in unterschiedlichen Konzentrationen (0.1-1000 nM) 24 Stunden bei 37°C behandelt.
Der prozentuale Anteil der in der G2/M Phase des Zellzyklus arrettierten Zellen nach Behandlung mit Referenz- oder ausgewählten Testsubstanzen ist in der nachfolgenden Tabelle 4 dargestellt. Die Ergebnisse wurden mit einer speziellen Analysesoftware (ModFit™) ausgewertet.

[3] = type: physicochemical; details: water, at most 1 % DMSO added
Description: Die Bestimmung der Sättigungslöslichkeit in Wasser für die Verbindungen 1, 2, 10 und 14 erfolgte wie nachfolgend beschrieben. Zum Anlösen der Substanzen und um die Benetzung der Proben zu verbessern, wurde maximal 1 % DMSO zugesetzt. Zur Überprüfung des Gehaltes wurde eine HPLC-UV-Methode angewandt. Die Ergebnisse sind in der nachfolgenden Tabelle 5 zusammengefasst: Tabelle 5: […]

[4] = test system: humane Glioblastom Zelllinie SF-268 (NCI 503138); assay: XTT proliferation assay (cytotoxicity test), SF-268; type: cell-based; details: Homo sapiens, read-out: XTT Proliferationsassay, EC50
Description: as §1, with “503473).” for “503473). Tabelle 1:”

[5] = test system: ovariale Adenokarzinomzelllinie SKOV-3 (ATCC HTB77); assay: XTT proliferation assay (cytotoxicity test), SKOV-3; type: cell-based; details: Homo sapiens, SK-OV-3; SKOV3; read-out: XTT Proliferationsassay, EC50
Description: as §1, with “503473).” for “503473). Tabelle 1:”

[6] = test system: akute myeloische Leukaemie Zelllinie LT12; assay: XTT proliferation assay, LT12 wild type; type: cell-based; details: Rattus norvegicus, LT12, read-out: XTT Proliferationsassay, EC50
Description: as §1, §2, §3

murine L1210 = assay: XTT proliferation assay, L1210 wild type; type: cell-based; details: Mus musculus, L1210, read-out: XTT Proliferationsassay, EC50
Description: as §1, §2, §3

[7] = test system: humane Cervixkarzinom Zelllinie KB/HeLa (ATCC CCL17); assay: XTT proliferation assay (cytotoxicity test), KB/HeLa; type: cell-based; details: Homo sapiens, read-out: XTT Proliferationsassay, EC50
Description: as §1, with “503473).” for “503473). Tabelle 1:”

Melanom, MEXF462 = type: in vivo, Mäuse; details: 80 mg/kg p.o.; day 18
Description: Die in vivo Aktivität und Verträglichkeit der erfindungsgemäßen Verbindung 2 wurde im Vergleich zu den Substanzen 10 und 14 in einem humanen Xenograft-Modell (Melanom, MEXF462) überprüft. Die Ergebnisse sind in der nachfolgenden Tabelle 6 zusammengefasst: in vivo Aktivitäten von Verbindung 2, 10 and 14 (Melanom; MEXF462) Tabelle 6: […]

[8] = test system: Lungenkarzinom Zelllinie NCI-H460 (NCI 503473); assay: XTT proliferation assay (cytotoxicity test), NCI-H460; type: cell-based; details: Homo sapiens, NCl-H460, read-out: XTT Proliferationsassay, EC50
Description: as §1, with “503473).” for “503473). Tabelle 1:”

[9] = test system: murine P388 Zelllinie (methyl-cholanthreneinduced lymphoid neoplasm); assay: XTT proliferation assay, P388 wild type; type: cell-based; details: Mus musculus, P388, read-out: XTT Proliferationsassay, EC50
Description: as §1, §2, §3

Mamma, MAXF857 = type: in vivo, Mäuse; details: 80 mg/kg p.o.
Description: Die in vivo Aktivität und Verträglichkeit der erfindungsgemäßen Verbindung 2 wurde im Vergleich zu der Substanz 10 in einem weiteren humanen Xenograft-Modell (Mamma, MAXF857) überprüft. Die Ergebnisse werden in der nächsten Tabelle gezeigt: Effect of 2 and 10 on the Mammary Cancer MAXF857 Tabelle 7: […]

## O=C(Nc1cnc2nccnc2c1)C(=O)c1cn(Cc2ccc(Cl)cc2)c2ccccc12 [Verbindung 1, 2-[1-(4-Chlor-benzyl)-1H-indol-3-yl]-2-oxo-N-pyrido[2,3-b]pyrazin-7-yl-acetamid]
[1]; P388, P388ADR, read-out: XTT Proliferationsassay, EC50
  EC50: 0.019 µg/mL (≈ 0.043 µM)
LT12/mdr; LT12, LT12mdr, read-out: XTT Proliferationsassay, EC50
  EC50: 0.017 µg/mL (≈ 0.0385 µM)
Human Topoisomerase II
  Hemmung der Topoisomerase II (Inhibierung der pRYG Relaxation): signifikante Hemmung
Rindertubulin; tubulin with 30% associated proteins (MAPs), mean of two independent experiments
  Hemmung der Tubulin-Polymerisation, EC50: 0.71 µg/mL
Rindertubulin; verbal summary of Table 3
  Hemmwirkung auf die Polymerisation von Tubulin: sehr potente Hemmwirkung
U-937 Zelllinie
  Nucleosomen im Zelllysat: konzentrationsabhängiger Anstieg
  Nucleosomen im Zellkulturüberstand: kein signifikanter Anstieg
L1210VCR; L1210, L1210VCR, read-out: XTT Proliferationsassay, EC50
  EC50: 0.021 µg/mL (≈ 0.0475 µM)
[2]
  Hemmung der Topoisomerase II (Inhibierung der Decatenation von kDNA): signifikante Hemmung
KB/HeLa Zellen; KB/HeLa cells, 0.1-1000 nM, 24 h at 37°C
  EC50: 25.2 nM
[3]
  Sättigungslöslichkeit in Wasser: 25.0 µg/mL

## CC(=O)N(C(=O)C(=O)c1cn(Cc2ccc(Cl)cc2)c2ccccc12)c1ccc2ncccc2c1 [Verbindung 2, N-{2-[1-(4-Chlor-benzyl)-1H-indol-3-yl]-2-oxo-acetyl}-N-chinolin-6-yl-acetamid]
[1]; P388, read-out: XTT Proliferationsassay, EC50
  EC50: 0.215 µg/mL (≈ 0.446 µM)
[4]
  EC50: 0.166 µg/mL (≈ 0.344 µM)
LT12/mdr; LT12, read-out: XTT Proliferationsassay, EC50
  EC50: 0.272 µg/mL (≈ 0.564 µM)
[5]
  EC50: 0.123 µg/mL (≈ 0.255 µM)
[6]
  EC50: 0.225 µg/mL (≈ 0.467 µM)
Murine L1210
  EC50: 0.206 µg/mL (≈ 0.427 µM)
[7]
  EC50: 0.202 µg/mL (≈ 0.419 µM)
U-937 Zelllinie
  Nucleosomen im Zelllysat: konzentrationsabhängiger Anstieg
  Nucleosomen im Zellkulturüberstand: kein signifikanter Anstieg
L1210VCR; L1210, read-out: XTT Proliferationsassay, EC50
  EC50: 0.558 µg/mL (≈ 1.16 µM)
Melanom, MEXF462
  Optimale T/C % (Tag): 0.0%
[8]
  EC50: 0.168 µg/mL (≈ 0.349 µM)
KB/HeLa Zellen; HeLa, 24 h
  EC50: 125 nM
[9]
  EC50: 0.224 µg/mL (≈ 0.465 µM)
[3]
  Sättigungslöslichkeit in Wasser: 28.5 µg/mL
Mamma, MAXF857; day 10
  Optimale T/C % (Tag): 9.6% (10)
Mamma, MAXF857; dead animals / total
  Todesfällen: 0/6 Mäuse
